Data as given in ChEMBL document CHEMBL5608250, “Quinolinonyl Derivatives as Dual Inhibitors of the HIV-1 Integrase Catalytic Site and Integrase-RNA interactions” (ACS Med Chem Lett, 2024).
Calls of active or inactive are those of the source. The calls are words filed in the database; no cut-off is given here.

Legend:
[1] = system: Human immunodeficiency virus 1; assay: (§1) Antiviral activity against VSV-G pseudotyped HIV-1 NL4.3 (isolated from HEK293T cells viral stock supernatant) infected in human MT4 cells assessed as inhibition of early stage viral replication preincubated for 3 to 4 hrs in presence of polybrene followed by fresh media replacement with compound and measured after 48 hrs by flow cytometric analysis; type: functional, organism-based; conditions: Human immunodeficiency virus 1, NL4.3, MT4
[2] = Inhibition of His-tagged HIV-1 integrase/FLAG-tagged LEDGF (unknown origin) protein-protein interaction preincubated with integrase for 30 mins followed by LEDGF/p75 addition and measured after overnight incubation by HTRF assay
[3] = target: T1, Human immunodeficiency virus type 1 integrase (Human immunodeficiency virus 1, UniProt Q7ZJM1); assay: Inhibition of HIV-1 integrase catalytic activity incubated for 1 hrs in absence of LEDGF/p75 by HTRF assay
[4] = target: Human immunodeficiency virus type 1 integrase (Human immunodeficiency virus 1) (UniProt Q7ZJM1); assay: (§2) Inhibition of HIV1 integrase activity by measuring multimerization of His-tagged integrase/FLAG-tagged integrase incubated for 3 hrs by […] HTRF assay
[5] = (§3) Inhibition of 6His-tagged recombinant HIV-1 integrase/biotinylated HIV-1 transactivation response element RNA interaction assessed as […] preincubated with integrase for 2 hrs followed by RNA addition and measured after 1 hrs by ALPHAscreen based AlphaLISA; design: species or system Human immunodeficiency virus 1
[6] = system: Human immunodeficiency virus 1; assay: as §1, with “analysis relative to control” for “analysis”; type: functional; conditions: time 51-52 hrs
[7] = system: Human immunodeficiency virus 1; assay: as §1, with “from compound pretreated” for “from”, “late” for “early”; type: functional, organism-based; conditions: time 51-52 hrs
[8] = target: T1, Human immunodeficiency virus type 1 integrase; assay: as §2
[9] = system: Human immunodeficiency virus 1; assay: as §3; conditions: time 3.0 hrs
[10] = system: Human immunodeficiency virus 1; assay: Antiviral activity against VSV-G pseudotyped HIV-1 NL4.3 (isolated from compound pretreated HEK293T cells viral stock supernatant) infected in human MT4 cells assessed as inhibition of late stage viral replication at 25 microM preincubated for 3 to 4 hrs in presence of polybrene followed by fresh media replacement with compound and measured after 48 hrs by flow cytometric analysis relative to …; type: functional; conditions: Human immunodeficiency virus 1, NL4.3, MT4, time 51-52 hrs

Chain of Human immunodeficiency virus type 1 integrase (Human immunodeficiency virus 1) (Q7ZJM1 as listed by the source): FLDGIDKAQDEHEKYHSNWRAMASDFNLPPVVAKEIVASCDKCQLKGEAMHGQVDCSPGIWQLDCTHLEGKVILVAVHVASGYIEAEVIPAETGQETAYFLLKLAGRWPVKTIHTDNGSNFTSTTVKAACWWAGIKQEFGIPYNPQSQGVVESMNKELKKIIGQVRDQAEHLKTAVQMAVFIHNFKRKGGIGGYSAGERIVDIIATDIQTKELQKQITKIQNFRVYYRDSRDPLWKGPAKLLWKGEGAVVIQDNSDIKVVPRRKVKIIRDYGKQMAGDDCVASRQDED
T1 sequence (Q7ZJM1 whole entry): as the sequence (Q7ZJM1 as listed by the source) above

| Structure (SMILES) | EC50 [1] | inhibition [2] | IC50 [3] | inhibition [4] | IC50 [5] | inhibition (INH) [6] | Activity [7] | EC50 [8] | inhibition [9] | inhibition at 25 µM [10] |
| --- | --- | --- | --- | --- | --- | --- | --- | --- | --- | --- |
| CN(C)c1cc2c(cc1C(=O)/C=C(\O)C(=O)O)c(=O)c(C(=O)/C=C(\O)C(=O)O)cn2Cc1ccc(F)cc1 | > 6250 nM | inactive | 181 nM | Active | 750 nM | 38% | inactive | – | – | – |
| O=C(O)c1cn(Cc2ccc(F)cc2)c2ccc(OCc3ccc(OCc4ccccc4)cc3)cc2c1=O | – | inactive | 6280 nM | – | – | – | – | > 2000 nM | Active | – |
| CCOC(=O)/C(O)=C/C(=O)c1ccc2[nH]cc(C(=O)/C=C(\O)C(=O)OCC)c(=O)c2c1 | – | Active | 2340 nM | Active | 2220 nM | – | – | – | – | – |
| O=C(O)/C(O)=C/C(=O)c1ccc2[nH]cc(C(=O)/C=C(\O)C(=O)O)c(=O)c2c1 | – | Active | 3140 nM | Active | 1330 nM | – | – | – | – | – |
| O=C(O)c1cn(Cc2ccc(F)cc2)c2ccc(OCc3cccc4ccccc34)cc2c1=O | – | inactive | 36500 nM | – | – | – | – | > 200000 nM | Active | – |
| O=C(O)/C(O)=C/C(=O)c1cn(Cc2ccc(F)cc2)c2ccc(C(=O)c3ccc(C(=O)O)cc3)cc2c1=O | – | inactive | 77 nM | Active | 1570 nM | – | – | – | – | – |
| CCOC(=O)c1cn(Cc2ccc(F)cc2)c2ccc(OCc3cccc4ccccc34)cc2c1=O | – | inactive | 41900 nM | – | – | – | – | > 200000 nM | Active | – |
| O=C(O)c1cn(Cc2ccc(F)cc2)c2ccc(Oc3ccccc3)cc2c1=O | – | inactive | > 200000 nM | Active | – | – | – | – | Active | – |
| CCOC(=O)/C(O)=C/C(=O)c1ccc2c(c1)c(=O)c(C(=O)/C=C(\O)C(=O)OCC)cn2Cc1ccc(F)cc1 | – | inactive | 800 nM | Active | 1980 nM | – | – | – | – | – |
| CCOC(=O)/C(O)=C/C(=O)c1cc2c(=O)c(C(=O)/C=C(\O)C(=O)OCC)cn(Cc3ccc(F)cc3)c2cc1N1CCN(C)CC1 | – | inactive | 782 nM | Active | 4190 nM | – | – | – | – | – |
| CCOC(=O)/C(O)=C/C(=O)c1cn(Cc2ccc(F)cc2)c2ccc(C(=O)c3ccc(C(=O)OCC)cc3)cc2c1=O | – | inactive | 741 nM | Active | – | – | – | – | Active | – |
| CCOC(=O)c1cn(Cc2ccc(F)cc2)c2ccc(OCc3ccc(OCc4ccccc4)cc3)cc2c1=O | – | inactive | > 200000 nM | Active | – | – | – | – | Active | – |
| O=C(O)/C(O)=C/C(=O)c1ccc2c(c1)c(=O)c(C(=O)/C=C(\O)C(=O)O)cn2Cc1ccc(F)cc1 | 2270 nM | Active | – | Active | 840 nM | – | – | – | – | 40% |
| O=C(O)c1cn(Cc2ccc(F)cc2)c2ccc(OCc3ccc(F)cc3)cc2c1=O | – | inactive | > 200000 nM | inactive | – | – | – | – | Active | – |
| CCOC(=O)/C(O)=C/C(=O)c1cc2c(=O)c(C(=O)/C=C(\O)C(=O)OCC)cn(Cc3ccc(F)cc3)c2cc1N(C)C | > 6250 nM | inactive | 480 nM | – | 1040 nM | 50% | inactive | > 200000 nM | – | – |
